In patent publication US12522594B2, “2-heteroaryl-3-oxo-2,3-dihydropyridazine-4-carboxamides for the treatment of cancer” (Deutsches Krebsforschungszentrum, priority 2017, dated 2026):

Legend:
Assay type in all cases: cell-based
AHR [1] = target: T1, AHR (Homo sapiens, UniProt P35869); experiment: In vitro assay 2: agonism in human cell line (transactivation assay, U87 cells, DRE firefly luciferase reporter); set-up: host or cells: U87 glioblastoma cells, stably transfected with DRE firefly luciferase and renilla reporter constructs; details: no kynurenic acid, 20 hours, read-out: Assay 2: AHR-luc Hum Agonism IC50
T1 sequence (P35869 11-848): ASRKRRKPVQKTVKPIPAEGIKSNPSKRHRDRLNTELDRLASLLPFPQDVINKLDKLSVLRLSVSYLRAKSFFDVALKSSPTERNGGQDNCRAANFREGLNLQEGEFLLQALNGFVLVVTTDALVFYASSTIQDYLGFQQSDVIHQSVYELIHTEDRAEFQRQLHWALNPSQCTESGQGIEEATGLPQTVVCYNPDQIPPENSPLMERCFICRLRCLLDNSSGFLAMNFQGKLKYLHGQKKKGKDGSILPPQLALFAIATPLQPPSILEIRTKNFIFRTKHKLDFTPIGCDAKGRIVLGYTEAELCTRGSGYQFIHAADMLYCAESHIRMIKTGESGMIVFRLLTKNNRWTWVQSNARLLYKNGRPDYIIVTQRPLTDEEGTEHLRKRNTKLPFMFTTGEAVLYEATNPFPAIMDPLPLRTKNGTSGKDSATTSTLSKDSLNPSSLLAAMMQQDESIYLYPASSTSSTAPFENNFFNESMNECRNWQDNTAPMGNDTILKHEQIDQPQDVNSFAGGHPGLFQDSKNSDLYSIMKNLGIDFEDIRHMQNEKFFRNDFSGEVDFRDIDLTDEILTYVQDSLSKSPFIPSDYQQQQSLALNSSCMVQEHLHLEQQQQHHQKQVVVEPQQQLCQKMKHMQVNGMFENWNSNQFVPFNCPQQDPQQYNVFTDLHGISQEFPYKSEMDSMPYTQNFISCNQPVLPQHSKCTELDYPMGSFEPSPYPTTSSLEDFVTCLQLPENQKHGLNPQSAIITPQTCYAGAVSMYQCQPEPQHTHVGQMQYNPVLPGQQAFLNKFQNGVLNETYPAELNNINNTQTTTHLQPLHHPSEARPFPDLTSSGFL
How it was run: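 Agonist readout: DRE firefly luciferase, with constitutive renilla reporter, in stably transfected U87 cells expressing AHR endogenously. Normalization used positive control (300 uM kynurenic acid) and negative control.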

AHR [2] = target: T1, AHR; experiment: In vitro assay 1: antagonism in human cell line (transactivation assay, U87 cells prestimulated with kynurenic acid, DRE firefly luciferase reporter); set-up: host or cells: U87 glioblastoma cells, stably transfected with DRE firefly luciferase and renilla reporter constructs; details: 150 uM kynurenic acid, 20 hours, read-out: Assay 1: AHR-luc Hum Antagonism IC50
How it was run: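 Antagonism measured after kynurenic acid prestimulation in U87 cells that express AHR endogenously and stably harbor a firefly luciferase gene under DRE control plus a constitutive renilla construct. Positive and negative controls served for normalization.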

AHR [3] = target: T1, AHR; experiment: In vitro assay 3: AHR-regulated CYP1A1 expression in human cell line (U937, qPCR, KA stimulation); details: U937 cells, 200 uM KA, 6 hours, CYP1A1 expression by qPCR; read-out: Assay 3: Hum CYP1A1 Antagonism IC50
How it was run: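 U937 human monocytic cells were stimulated with 200 uM KA for 6 h, with or without compound at eight concentrations from 1 nM to 3 uM, in duplicate. CYP1A1 mRNA was quantified by Taqman qPCR as fold expression normalised to HPRT. Unstimulated cells served as negative control.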

| IC50 (AHR [1]) | IC50 (AHR [2]) | IC50 (AHR [3]) | Structure (SMILES) |
| --- | --- | --- | --- |
| > 20000 nM | 1.15 nM | 0.905 nM | O=C(N[C@H](CO)C(F)(F)F)c1cc(-c2ccc(C(F)(F)F)cc2)nn(-c2cccnc2)c1=O [Example 112, 3-Oxo-2-(pyridin-3-yl)-N-[(2R)-1,1,1-trifluoro-3-hydroxypropan-2-yl]-6-[4-(trifluoromethyl)phenyl]-2,3-dihydropyridazine-4-carboxamide] |
| > 20000 nM | 3.06 nM | 5.72 nM | C[C@@H](CO)NC(=O)c1cc(-c2ccc(C(F)(F)F)cc2)nn(-c2cccnc2)c1=O [Example 119, N-[(2S)-1-Hydroxypropan-2-yl]-3-oxo-2-(pyridin-3-yl)-6-[4-(trifluoromethyl)phenyl]-2,3-dihydropyridazine-4-carboxamide] |
| > 20000 nM | 1.62 nM | 2.67 nM | Cn1cc(-n2nc(-c3ccc(C(F)(F)F)cc3)cc(C(=O)N[C@H](CO)CF)c2=O)cn1 [Example 211, N-[(2R)-1-Fluoro-3-hydroxypropan-2-yl]-2-(1-methyl-1H-pyrazol-4-yl)-3-oxo-6-[4-(trifluoromethyl)phenyl]-2,3-dihydropyridazine-4-carboxamide] |
| > 20000 nM | 2.64 nM | 0.423 nM | Cn1cc(-n2nc(-c3ccc(C(F)(F)F)cc3)cc(C(=O)NC[C@H](O)C(F)(F)F)c2=O)cn1 [Example 37, 2-(1-Methyl-1H-pyrazol-4-yl)-3-oxo-N-[(2S)-3,3,3-trifluoro-2-hydroxypropyl]-6-[4-(trifluoromethyl)phenyl]-2,3-dihydropyridazine-4-carboxamide] |
| > 20000 nM | 3.67 nM | 3.77 nM | O=C(N[C@H](CO)C(F)(F)F)c1cc(-c2ccc(Cl)cc2)nn(-c2cccnc2)c1=O [Example 96, (+)-6-(4-Chlorophenyl)-3-oxo-2-(pyridin-3-yl)-N-[(2R)-1,1,1-trifluoro-3-hydroxypropan-2-yl]-2,3-dihydropyridazine-4-carboxamide] |
| > 20000 nM | 182 nM | 495 nM | O=C(NC[C@H](O)CO)c1cc(-c2ccc(Cl)cc2)nn(-c2cccnc2)c1=O [Example 72, (−)-6-(4-Chlorophenyl)-N-[(2S)-2,3-dihydroxypropyl]-3-oxo-2-(pyridin-3-yl)-2,3-dihydropyridazine-4-carboxamide] |
| > 20000 nM | 4.8 nM | 2.64 nM | O=C(NCC(O)C(F)(F)F)c1cc(-c2ccc(Cl)cc2)nn(-c2cccnc2)c1=O (single isomer, unassigned; (-)) [Example 89, (−)-6-(4-Chlorophenyl)-3-oxo-2-(pyridin-3-yl)-N-(3,3,3-trifluoro-2-hydroxypropyl)-2,3-dihydropyridazine-4-carboxamide] |
| > 20000 nM | 31.9 nM | 89.9 nM | O=C(NC[C@H](O)C(F)F)c1cc(-c2ccc(OC(F)(F)F)cc2)nn(-c2cccnc2)c1=O [Example 295, N-[(2S)-3,3-Difluoro-2-hydroxypropyl]-3-oxo-2-(pyridin-3-yl)-6-[4-(trifluoromethoxy)phenyl]-2,3-dihydropyridazine-4-carboxamide] |
| > 20000 nM | 2.44 nM | 7.01 nM | O=C(N[C@@H]1CC[C@@H]1O)c1cc(-c2ccc(C(F)(F)F)cc2)nn(-c2cccnc2)c1=O (single isomer, unassigned) [Example 217, (+)-N-cis-2- Hydroxycyclobutyl-3-oxo-2-(pyridin-3-yl)-6-[4-(trifluoromethyl)phenyl]-2,3-dihydropyridazine-4-carboxamide] |
| > 20000 nM | 10.9 nM | 36.3 nM | CC(C)(O)C(NC(=O)c1cc(-c2ccc(C(F)(F)F)cc2)nn(-c2cccnc2)c1=O)C(F)(F)F (single isomer, unassigned; (-)) [Example 241, (−)-3-Oxo-2-(pyridin-3-yl)-N-(1,1,1-trifluoro-3-hydroxy-3-methylbutan-2-yl)-6-[4-(trifluoromethyl)phenyl]-2,3-dihydropyridazine-4-carboxamide] |
| > 20000 nM | 11.2 nM | 8.7 nM | O=C(NC(CO)C1CC1)c1cc(-c2ccc(Cl)cc2)nn(-c2cccnc2)c1=O (racemic) [Example 77, 6-(4-Chlorophenyl)-N-[(1RS)-1-cyclopropyl-2-hydroxyethyl]-3-oxo-2-(pyridin-3-yl)-2,3-dihydropyridazine-4-carboxamide] |

Second part, the compound before the results:

| Structure (SMILES) | IC50 (AHR [1]) | IC50 (AHR [2]) | IC50 (AHR [3]) |
| --- | --- | --- | --- |
| Cn1cc(-n2nc(-c3ccc(C(F)(F)F)cc3)cc(C(=O)N[C@H](CO)C3CC3)c2=O)cn1 [Example 238, N-[(1S)-1-Cyclopropyl-2-hydroxyethyl]-2-(1-methyl-1H-pyrazol-4-yl)-3-oxo-6-[4-(trifluoromethyl)phenyl]-2,3-dihydropyridazine-4-carboxamide] | > 20000 nM | 9.88 nM | 14.7 nM |
| CC(C)(O)CNC(=O)c1cc(-c2ccc(Cl)cc2)nn(-c2cccnc2)c1=O [Example 71, 6-(4-Chlorophenyl)-N-(2-hydroxy-2-methylpropyl)-3-oxo-2-(pyridin-3-yl)-2,3-dihydropyridazine-4-carboxamide] | > 20000 nM | 38 nM | 60.7 nM |
| C[C@@H](CO)NC(=O)c1cc(-c2ccc(Cl)cc2)nn(-c2cncc(F)c2)c1=O [Example 80, 6-(4-Chlorophenyl)-2-(5-fluoropyridin-3-yl)-N-[(2S)-1-hydroxypropan-2-yl]-3-oxo-2,3-dihydropyridazine-4-carboxamide] | > 20000 nM | 27.1 nM | 32.6 nM |
| O=C(N[C@H]1COC[C@H]1O)c1cc(-c2ccc(OC(F)(F)F)cc2)nn(-c2cccnc2)c1=O (single isomer, unassigned; enantiomer 1) [Example 158, N-[(cis)-4-Hydroxytetrahydrofuran-3-yl]-3-oxo-2-(pyridin-3-yl)-6-[4-(trifluoromethoxy)phenyl]-2,3-dihydropyridazine-4-carboxamide, Enantiomer 1] | > 20000 nM | 21.8 nM | 25.2 nM |
| Cn1cc(-n2nc(-c3ccc(C(F)(F)F)cc3)cc(C(=O)N[C@H]3CCC[C@H]3O)c2=O)cn1 [Example 204, N-[(1S,2R)-2-Hydroxycyclopentyl]-2-(1-methyl-1H-pyrazol-4-yl)-3-oxo-6-[4-(trifluoromethyl)phenyl]-2,3-dihydropyridazine-4-carboxamide] | > 20000 nM | 1 nM | 1.55 nM |
| O=C(N[C@H]1CCCC[C@H]1O)c1cc(-c2ccc(Cl)cc2)nn(-c2cccnc2)c1=O [Example 125, 6-(4-Chlorophenyl)-N-[(1S,2R)-2-hydroxycyclohexyl]-3-oxo-2-(pyridin-3-yl)-2,3-dihydropyridazine-4-carboxamide] | > 20000 nM | 3.82 nM | 4.4 nM |
| Cc1ccc(-c2cc(C(=O)NCC(O)C(F)F)c(=O)n(-c3cnn(C)c3)n2)cc1 (single isomer, unassigned; enantiomer 1) [Example 14, N-(3,3-Difluoro-2-hydroxypropyl)-6-(4-methylphenyl)-2-(1-methyl-1H-pyrazol-4-yl)-3-oxo-2,3-dihydropyridazine-4-carboxamide, Enantiomer 1] | > 20000 nM | 12.1 nM | 25.5 nM |
| Cn1cc(-n2nc(-c3ccc(Cl)cc3)cc(C(=O)N[C@@H](C#N)CO)c2=O)cn1 [Example 227, 6-(4-Chlorophenyl)-N-[(1S)-1-cyano-2-hydroxyethyl]-2-(1-methyl-1H-pyrazol-4-yl)-3-oxo-2,3-dihydropyridazine-4-carboxamide] | > 20000 nM | 5.99 nM | 11.6 nM |
| Cn1cc(-n2nc(-c3ccc(Cl)cc3)cc(C(=O)N[C@@H]3CCC[C@]3(C)O)c2=O)cn1 (relative stereo) [Example 317, 6-(4-Chlorophenyl)-N-[(cis)-2-hydroxy-2-methylcyclopentyl]-2-(1-methyl-1H-pyrazol-4-yl)-3-oxo-2,3-dihydropyridazine-4-carboxamide] | > 20000 nM | 30.3 nM | 37.3 nM |
